Data as given in patent US12060347B2 (BRISTOL-MYERS SQUIBB COMPANY, priority 2016, dated 2024).

Molecular target: T1, human PAR4 (Homo sapiens, UniProt Q96RI0)
T1 construct: expressed in transfected cells; host or cells: HEK293 PAR4 Clone 1.2A (BMS Arctic ID 383940)
T1 sequence (Q96RI0 18-385): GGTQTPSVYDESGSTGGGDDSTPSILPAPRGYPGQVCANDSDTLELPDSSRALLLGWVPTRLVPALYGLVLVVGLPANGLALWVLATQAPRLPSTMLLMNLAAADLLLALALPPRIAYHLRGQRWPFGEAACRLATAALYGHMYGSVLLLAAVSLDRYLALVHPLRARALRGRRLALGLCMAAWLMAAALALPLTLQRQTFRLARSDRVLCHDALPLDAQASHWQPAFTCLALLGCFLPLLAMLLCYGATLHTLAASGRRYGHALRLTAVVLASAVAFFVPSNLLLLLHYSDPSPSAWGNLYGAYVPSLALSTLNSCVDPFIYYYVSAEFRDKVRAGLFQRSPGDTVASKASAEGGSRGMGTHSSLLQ
Assay: PAR4 FLIPR assay: antagonism of agonist-peptide-induced calcium mobilization in PAR4-expressing HEK293 cells
Type: cell-based
Conditions: H-Ala-Phe(4-F)-[…]NH2-induced intracellular calcium mobilization, 11-point curves

COCc1cnc2c(-c3nc4c(C)c(C)c(OCCOC(=O)OC)cc4s3)cc(C)cc2n1 [Example 320, 2-((2-(2-(methoxymethyl)-7-methylquinoxalin-5-yl)-4,5-dimethylbenzo[d]thiazol-6-yl)oxy)ethyl methyl carbonate] gave an IC50 of 3.4 nM.

COc1cnc2c(-c3nc4c(Cl)c(F)c(OCC(=O)N5CCOCC5)cc4s3)cc(C)cc2n1 [Example 324, 2-((4-chloro-5-fluoro-2-(2-methoxy-7-methylquinoxalin-5-yl)benzo[d]thiazol-6-yl)oxy)-1-morpholinoethanone] was tested, and the IC50 was 42 nM.

With [2H]C([2H])(O)c1c(C)c(OC)cc2sc(-c3cc(C)cc4nc(COC)cnc34)nc12 [Example 325] the IC50 was 0.7 nM.

For COCc1cnc2c(-c3nc4c(C(C)O)c(C)c(OC)cc4s3)cc(C)cc2n1 (stereo not drawn) [Example 326, 1-(6-methoxy-2-(2-(methoxymethyl)-7-methylquinoxalin-5-yl)-5-methylbenzo[d]thiazol-4-yl)ethanol], the IC50 was 1.1 nM.

Work on COCc1cnc2c(-c3nc4c(Cl)c(C)c(OCCO)cc4s3)cc(C)cc2n1 [Example 327, 2-((4-chloro-2-(2-(methoxymethyl)-7-methylquinoxalin-5-yl)-5-methylbenzo[d]thiazol-6-yl)oxy)ethanol] yielded an IC50 of 5.2 nM.

For COCc1cnc2c(-c3nc4cc(F)c(OC(C)C)cc4s3)cc(C)cc2n1 [Example 329, 5-fluoro-6-isopropoxy-2-(2-(methoxymethyl)-7-methylquinoxalin-5-yl)benzo[d]thiazole], the IC50 was 1.1 nM.

COc1cnc2c(-c3nc4c(Cl)c(F)c(OCCNS(=O)(=O)c5ccccc5)cc4s3)cc(C)cc2n1 [Example 330, N-(2-((4-chloro-5-fluoro-2-(2-methoxy-7-methylquinoxalin-5-yl)benzo[d]thiazol-6-yl)oxy)ethyl)benzenesulfonamide] was tested, and the IC50 was 57 nM.

With COc1cnc2c(-c3nc4c(Cl)c(F)c(OCCOC(=O)Nc5cccnc5)cc4s3)cc(C)cc2n1 [Example 331, 2-((4-chloro-5-fluoro-2-(2-methoxy-7-methylquinoxalin-5-yl)benzo[d]thiazol-6-yl)oxy)ethyl pyridin-3-ylcarbamate] the IC50 was 9.2 nM.

In the case of COc1ccc(NC(=O)OCCOc2cc3sc(-c4cc(C)cc5nc(OC)cnc45)nc3c(Cl)c2F)cn1 [Example 332, 2((4-chloro-5-fluoro-2-(2-methoxy-7-methylquinoxalin-5-yl)benzo[d]thiazol-6-yl)oxy)ethyl (6-methoxypyridin-3-yl)carbamate], the IC50 is reported as 2.4 nM.

COc1cnc2c(-c3nc4c(Cl)c(F)c(OCCOC(=O)Nc5ccc6[nH]c(=O)oc6c5)cc4s3)cc(C)cc2n1 [Example 333, 2((4-chloro-5-fluoro-2-(2-methoxy-7-methylquinoxalin-5-yl)benzo[d]thiazol-6-yl)oxy)ethyl (2-oxo-2,3-dihydrobenzo[d]oxazol-6-yl)carbamate] showed an IC50 of 1.7 nM.

COc1cnc2c(-c3nc4c(Cl)c(F)c(OCCOC(=O)NCC(F)(F)F)cc4s3)cc(C)cc2n1 [Example 334, 2((4-chloro-5-fluoro-2-(2-methoxy-7-methylquinoxalin-5-yl)benzo[d]thiazol-6-yl)oxy)ethyl (2,2,2-trifluoroethyl)carbamate] was tested, and the IC50 was 29 nM.

COc1cnc2c(-c3nc4c(Cl)c(F)c(OCCOC(=O)Nc5ccncc5)cc4s3)cc(C)cc2n1 [Example 335, 2((4-chloro-5-fluoro-2-(2-methoxy-7-methylquinoxalin-5-yl)benzo[d]thiazol-6-yl)oxy)ethyl pyridin-4-ylcarbamate] was tested, and the IC50 was 2.5 nM.

For COc1cnc2c(-c3nc4c(Cl)c(F)c(OCCOC(=O)Nc5ccnc(C)c5)cc4s3)cc(C)cc2n1 [Example 336, 2((4-chloro-5-fluoro-2-(2-methoxy-7-methylquinoxalin-5-yl)benzo[d]thiazol-6-yl)oxy)ethyl (2-methylpyridin-4-yl)carbamate], the IC50 was 5.5 nM.

For COc1cnc2c(-c3nc4c(Cl)c(F)c(OCCOC(=O)Nc5cncc(F)c5)cc4s3)cc(C)cc2n1 [Example 337, 2((4-chloro-5-fluoro-2-(2-methoxy-7-methylquinoxalin-5-yl)benzo[d]thiazol-6-yl)oxy)ethyl (5-fluoropyridin-3-yl)carbamate], the IC50 was 0.7 nM.

In the case of COc1cnc2c(-c3nc4c(Cl)c(F)c(OCCOC(=O)Nc5ccc(-n6cnc(C)n6)nc5)cc4s3)cc(C)cc2n1 [Example 338, 2((4-chloro-5-fluoro-2-(2-methoxy-7-methylquinoxalin-5-yl)benzo[d]thiazol-6-yl)oxy)ethyl (6-(3-methyl-1H-1,2,4-triazol-1-yl)pyridin-3-yl)carbamate], the IC50 is reported as 2 nM.

For COc1cnc2c(-c3nc4cc(F)c(OCCOC(=O)Nc5cccnc5)cc4s3)cc(C)cc2n1 [Example 339, 2-((5-fluoro-2-(2-methoxy-7-methylquinoxalin-5-yl)benzo[d]thiazol-6-yl)oxy)ethyl pyridin-3-ylcarbamate], the IC50 was 1.6 nM.

Compound COc1cnc2c(-c3nc4cc(F)c(OCCOC(=O)Nc5ccc(F)nc5)cc4s3)cc(C)cc2n1 [Example 340, 2-((5-fluoro-2-(2-methoxy-7-methylquinoxalin-5-yl)benzo[d]thiazol-6-yl)oxy)ethyl (6-fluoropyridin-3-yl)carbamate] has an IC50 of 1.5 nM.

COc1ccc(NC(=O)OCCOc2cc3sc(-c4cc(C)cc5nc(OC)cnc45)nc3cc2F)cn1 [Example 341, 2-((5-fluoro-2-(2-methoxy-7-methylquinoxalin-5-yl)benzo[d]thiazol-6-yl)oxy) ethyl (6-methoxypyridin-3-yl)carbamate] showed an IC50 of 15 nM.

For COc1cnc2c(-c3nc4cc(F)c(OCCOC(=O)Nc5ccncc5)cc4s3)cc(C)cc2n1 [Example 342, 2-((5-fluoro-2-(2-methoxy-7-methylquinoxalin-5-yl)benzo[d]thiazol-6-yl)oxy)ethyl pyridin-4-ylcarbamate], the IC50 was 11 nM.

With COc1cnc2c(-c3nc4cc(F)c(OCCOC(=O)Nc5ccc6[nH]c(=O)oc6c5)cc4s3)cc(C)cc2n1 [Example 343, 2-((5-fluoro-2-(2-methoxy-7-methylquinoxalin-5-yl)benzo[d]thiazol-6-yl)oxy)ethyl (2-oxo-2,3-dihydrobenzo[d]oxazol-6-yl)carbamate] the IC50 was 0.7 nM.

COc1cnc2c(-c3nc4cc(F)c(O[C@H](C)COC(=O)Nc5cccnc5)cc4s3)cc(C)cc2n1 [Example 344, (R)-2-((5-fluoro-2-(2-methoxy-7-methylquinoxalin-5-yl)benzo[d]thiazol-6-yl)oxy)propyl pyridin-3-ylcarbamate] was tested, and the IC50 was 11 nM.

COc1cnc2c(-c3nc4cc(F)c(O[C@@H](C)COC(=O)Nc5cccnc5)cc4s3)cc(C)cc2n1 [Example 345, (S)-2-((5-fluoro-2-(2-methoxy-7-methylquinoxalin-5-yl)benzo[d]thiazol-6-yl)oxy)propyl pyridin-3-ylcarbamate] gave an IC50 of 0.6 nM.

Work on COc1cnc2c(-c3nc4cc(F)c(OC[C@H](C)OC(=O)Nc5cccnc5)cc4s3)cc(C)cc2n1 [Example 346, (S)-1-((5-fluoro-2-(2-methoxy-7-methylquinoxalin-5-yl)benzo[d]thiazol-6-yl)oxy)propan-2-ylpyridin-3-ylcarbamate] yielded an IC50 of 3.7 nM.

Work on COc1cnc2c(-c3nc4cc(F)c(OC[C@@H](C)OC(=O)Nc5cccnc5)cc4s3)cc(C)cc2n1 [Example 347, (R)-1-((5-fluoro-2-(2-methoxy-7-methylquinoxalin-5-yl)benzo[d]thiazol-6-yl)oxy)propan-2-yl pyridin-3-ylcarbamate] yielded an IC50 of 0.8 nM.

COc1cnc2c(-c3nc4cc(F)c(OC[C@@H](C)OC(=O)Nc5ccc(F)nc5)cc4s3)cc(C)cc2n1 [Example 348, (R)-1-((5-fluoro-2-(2-methoxy-7-methylquinoxalin-5-yl)benzo[d]thiazol-6-yl)oxy)propan-2-yl (6-fluoropyridin-3-yl)carbamate] was tested, and the IC50 was 4.4 nM.

In the case of COc1cnc2c(-c3nc4cc(F)c(OC[C@@H](C)OC(=O)Nc5ccncc5)cc4s3)cc(C)cc2n1 [Example 349, (R)-1-((5-fluoro-2-(2-methoxy-7-methylquinoxalin-5-yl)benzo[d]thiazol-6-yl)oxy)propan-2-yl pyridin-4-ylcarbamate], the IC50 is reported as 2.7 nM.

For COc1cnc2c(-c3nc4cc(F)c(OC[C@@H](C)OC(=O)Nc5ccc6[nH]c(=O)oc6c5)cc4s3)cc(C)cc2n1 [Example 350, (R)-1-((5-fluoro-2-(2-methoxy-7-methylquinoxalin-5-yl)benzo[d]thiazol-6-yl)oxy)propan-2-yl (2-oxo-2,3-dihydrobenzo[d]oxazol-6-yl)carbamate], the IC50 was 2.8 nM.

Work on COc1cnc2c(-c3nc4cc(F)c(OC[C@@H](C)OC(=O)Nc5ccc(C#N)nc5)cc4s3)cc(C)cc2n1 [Example 351, (R)-1-((5-fluoro-2-(2-methoxy-7-methylquinoxalin-5-yl)benzo[d]thiazol-6-yl)oxy) propan-2-yl (6-cyanopyridin-3-yl)carbamate] yielded an IC50 of 2.7 nM.

For COc1cnc2c(-c3nc4cc(F)c(OC[C@@H](C)OC(=O)NCCC(N)=O)cc4s3)cc(C)cc2n1 [Example 352, (R)-1-((5-fluoro-2-(2-methoxy-7-methylquinoxalin-5-yl)benzo[d]thiazol-6-yl)oxy)propan-2-yl (3-amino-3-oxopropyl) carbamate], the IC50 was 390 nM.

In the case of COc1cnc2c(-c3nc4cc(F)c(OC[C@@H](C)OC(=O)Nc5ccnnc5)cc4s3)cc(C)cc2n1 [Example 353, (R)-1-((5-fluoro-2-(2-methoxy-7-methylquinoxalin-5-yl)benzo[d]thiazol-6-yl)oxy)propan-2-yl pyridazin-4-ylcarbamate], the IC50 is reported as 22 nM.
